In patent US5428058A, “Phospholipase A2 inhibitors” (American Home Products Corporation, priority 1994, dated 1995):
Values joined by “and” are separate entries in the source; they are usually repeats but may differ in a detail not shown here. Equal values may be shown once.

Legend:
5-lipoxygenase = target: T1, 5-lipoxygenase (Mus musculus, UniProt P48999); assay: 5-lipoxygenase inhibition (LTC4 production) in resident murine peritoneal macrophages; format: cell-based, mouse (Swiss Webster)
T1 construct: Resident peritoneal macrophages were collected from female Swiss Webster mice; endogenous in cells; host or cells: resident peritoneal macrophages of female Swiss Webster mice
T1 sequence (P48999 1-674): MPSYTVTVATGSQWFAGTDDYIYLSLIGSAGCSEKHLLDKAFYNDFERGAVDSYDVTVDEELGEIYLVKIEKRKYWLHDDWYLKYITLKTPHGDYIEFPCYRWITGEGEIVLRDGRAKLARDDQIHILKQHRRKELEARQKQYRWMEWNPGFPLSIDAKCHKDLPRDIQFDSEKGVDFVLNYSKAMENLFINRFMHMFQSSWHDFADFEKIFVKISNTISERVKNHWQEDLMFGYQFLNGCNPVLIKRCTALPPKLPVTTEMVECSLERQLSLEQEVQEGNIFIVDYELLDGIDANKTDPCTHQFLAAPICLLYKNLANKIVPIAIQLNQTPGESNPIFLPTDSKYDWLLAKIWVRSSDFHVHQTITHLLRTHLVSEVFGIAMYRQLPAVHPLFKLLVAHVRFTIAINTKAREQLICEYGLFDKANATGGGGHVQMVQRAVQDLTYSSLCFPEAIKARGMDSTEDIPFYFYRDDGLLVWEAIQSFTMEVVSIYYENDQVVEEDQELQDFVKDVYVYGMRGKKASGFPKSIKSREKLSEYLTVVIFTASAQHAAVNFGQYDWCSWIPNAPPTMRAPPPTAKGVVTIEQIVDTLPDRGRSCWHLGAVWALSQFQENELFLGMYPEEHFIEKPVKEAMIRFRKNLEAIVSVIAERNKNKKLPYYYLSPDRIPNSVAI
Protocol: (§1) The ability of the compounds of the invention to act as inhibitors of the enzymes 5-lipoxygenase and cyclooxygenase was evaluated in the resident murine peritoneal macrophage standard pharmacological test procedure. This test procedure was carried out as follows.
(§2) Resident peritoneal macrophages were collected from female Swiss Webster mice (49 days old, 20-25 gms, Buckshire) by lavaging with 7-8 ml Hanks Balanced Salt Solution (HBSS) without Ca^++ and Mg^++ (GIBCO). The lavage fluid from several mice was pooled and centrifuged at 4° C. for 10 minutes at 400 xg. The cell pellet was resuspended in Medium 199 (GIBCO) with HEPES buffer containing 100 μg/ml gentamicin. Two ml of the cell suspension (4×10^6 cells) were then plated on 35 mm culture dishes (Nunc).
A macrophage monolayer was established after a 1-1.5 hour incubation of the cells at 37° C. in an atmosphere of […] and 5% CO2. The monolayers were washed 2× with 2 ml HBDSS, containing Ca^++ and Mg^++ after which 2 ml Medium 199 supplemented with 10% freshly thawed heat-inactivated fetal bovine serum and 100 μg/ml gentamicin was added for an overnight incubation.
Residual serum and cellular debris were removed from the monolayers by washing 3× with 2 ml HBSS containing Ca^++ and Mg^++. Macrophages were preincubated for 5 minutes with 1 ml serum-free M199 containing 10 μl dimethyl sulfoxide (DMSO) vehicle or test compound prior to cell activation with zymosan ([…]) or arachidonic acid (AA) (2 μM). After 2 hours, the supernatants were removed and either assayed for LTC4 and PGE2 by radioimmunoassay (RIA) directly or stored at -20° C. In all cases, results are expressed as ng metabolite/4×10^6 cells.
Calculations: The raw data were converted to ng metabolite/4-10^6 cells using a standard curve. Results were then expressed as percent inhibition of zymosan induced, leukotriene or prostaglandin synthesis (control) using the following equation: [formula] REFERENCE COMPOUNDS: The compounds used are listed below.

[1] = tested on: tetradecanoylphorbol acetate (TPA) induced ear edema; assay: tetradecanoylphorbol acetate (TPA) induced ear edema in mice; format: in vivo, mouse (Webster); parameters: activity in TPA ear edema test: dose or concentration left out as unconfirmed; conditions: for Percent Inhibition TPA Ear Edema: 30 min after TPA, measured 4 hrs after TPA
Protocol: Representative compounds of this invention were evaluated in an in vivo standard pharmacological test procedure that measured the effect of the representative compounds on dermal inflammation, as measured by the prevention of tetradecanoylphorbol acetate (TPA) induced car edema in Webster mice. This test procedure was carried out as follows.
Mice were placed into plastic boxes in groups of six. Eight groups of mice received TPA topically on the right ear. TPA was dissolved in acetone at a concentration of 100 ug/ml. TPA was applied to the right ear by the means of an automatic pipette. Volumes of 10 ul were applied to the inner and outer surfaces of the ear. Each mouse received 2 ug/ear TPA. The left ear (control) received acetone delivered in the same manner. The compounds to be evaluated were given orally 30 min after treatment with TPA.
Measurements were taken with Oditest calipers, 0-10 mm with 0.01 graduations. The right and left cars were measured 4 hrs after TPA-induced inflammation.
The difference between right and left car thickness was calculated and the significance was determined by a one way analysis of variance with Dunnet's comparisons to control (P=0.05). Drug effects are expressed as a percent change from control values according to the following formula. [formula]

cyclooxygenase = cyclooxygenase inhibition (PGE2 production) in resident murine peritoneal macrophages; format: cell-based, mouse (Swiss Webster); conditions: dose 0.5 μM; mouse macrophages, zymosan induced
Protocol: as §1, §2
A macrophage monolayer was established after a 1-1.5 hour incubation of the cells at 37° C. in an atmosphere of […] and 5% CO2. […]
Residual serum and cellular debris were removed from the monolayers by washing 3× with 2 ml HBSS containing Ca^++ and Mg^++. […] In all cases, results are expressed as ng metabolite/4×10^6 cells.
Calculations: The raw data were converted to ng metabolite/4-10^6 cells using a standard curve. Results were then expressed as percent inhibition of zymosan induced, leukotriene or prostaglandin synthesis (control) using the following equation: [formula] […]

[2] = mouse macrophages, zymosan induced
[3] = dose 0.1 μM, mouse macrophages, zymosan induced

SMILES	inhibition at 0.5 µM (5-lipoxygenase; [2])	Percent Inhibition TPA Ear Edema ([1]; 80 mg/kg p.o.)	Percent Inhibition TPA Ear Edema ([1]; 160 mg/kg p.o.)	PGE2 % Inhibition (cyclooxygenase)	also measured
O=C(CC[C@@H]1CC[C@H]2CCCC[C@@H]2C1)C1=C(O)COC1=O (relative stereo) [Example 1, 3-[3-[(2α,4aα,8aβ)-Decahydro-naphthalene-2-yl]-propionyl]-4-hydroxy-2-(5H) -furanone]	59%	19%	49%	54%	–
O=C(CC[C@@H]1CC[C@H]2CCCC[C@@H]2C1)C1=C(O)CSC1=O (relative stereo) [Example 2, 3-[3-[(2α,4aα,8aβ)-Decahydro-naphthalene-2-yl]-propionyl]-4-hydroxy-2-(5H)thiophenone]	92%	21%	66%	80% and 85%	LTC4 % Inhibition (5-lipoxygenase; [3]): 37%; inhibition at 0.1 µM (5-lipoxygenase; [3]): 43%
NC1=NN(c2cccc(C(F)(F)F)c2)CC1 [BW 755c, reference compound]	–	–	–	–	ED50 ([1]; Mus musculus, 4 h, oral, TPA-induced ear edema, mice): 88 mg/kg
CCCCCC#CCC#CCC#CCC#CCCCC(=O)O [ETYA, reference compound]	–	–	–	–	IC50 (5-lipoxygenase): 440 nM
COc1ccc2c(c1)c(CC(=O)O)c(C)n2C(=O)c1ccc(Cl)cc1 [Indomethacin, reference compound]	–	–	–	–	activity in TPA ear edema test [1]: inactive
